According to patent US5112835A, “6-substituted acyclopyrimidine nucleoside derivatives and antiviral agents containing the same as active ingredient thereof” (Mitsubishi Kasei Corporation, priority 1988, dated 1992):
pIC50: −log10 of the molar value.

Tests used:
HIV [1] = assay: Inhibitory activity for HIV proliferation (HIV antigen expression in HUT-78 cells, indirect immunofluorescence assay); assay type: cell-based
Procedure: In the same culture as that for the MT-4 cells, HUT-78 cells (human T cell clone which is not destroyed by the infection of HIV and releases HIV) were infected with HIV in an amount of 0.4 HIV per HUT-78 cell. Immediately thereafter, a predetermined concentration of 1-[(2-hydroxyethoxy)methyl]-6-phenylthiothymine was added to the culture medium and the cells were cultured at 37° C.
Every four days, 3/4 of the culture solution was exchanged and after 12 days of incubation the number of the cells positive to an HIV antigen was counted by indirect immunofluorescence assay using HIV antiserum (positive to the coating protein and core protein of HIV) which had been obtained from an HIV-infected patient.
For comparison, a similar experiment was carried out by using 2',3'-dideoxyadenosine.

HUT-78 cells = assay: Toxicity to HUT-78 cells; assay type: cell-based, human; details: 100 μM
host cell = details: background art statement; clinical treatment of HIV-infection; cited from earlier work
[2] = Cytotoxicity to MT-4 cells (not infected with HIV); assay type: cell-based; details: human, 5 days, 37° C., read-out: 50% cytotoxic concentration to MT-4 cells
Procedure: (§1) In RPMI 1640 DM culture medium containing 20 mM of Hepes buffer solution, 10% fetal bovine serum and 20 µg/ml of gentamycin, 3×10^4 MT-4 cells (human T cell clone which is destroyed by the infection of HIV) were infected with HIV in an amount of 100 times as large as expected to cause 50% infection of the cells. Immediately thereafter, a predetermined amount of sample was added to the culture medium using 50 mg/ml sample solutions in dimethyl sulfoxide and the cells were cultured at 37° C.
(§2) After 5 days of incubation, the number of existing cells was counted to determine the concentration of the compound for preventing the death of 50% of the MT-4 cells. Separately, MT-4 cells were cultured in the same way as above except that they were not infected with HIV to determine the concentration of the compound at which 50% of the MT-4 cells were destroyed.

HIV [3] = assay: Inhibitory activity for HIV infection (preventing the death of 50% of the MT-4 cells); assay type: cell-based; details: Human immunodeficiency virus 1, MT4, 120 h, 5 days of incubation, 37° C., read-out: 50% inhibitory concentration of HIV infection
Procedure: as §1, §2

Q: What does the source list for `Nc1ncnc2c1ncn2[C@H]1CC[C@@H](CO)O1` [2',3'-dideoxyadenosine, reference compound]?
A: prevention of the expression of the HIV antigen (HIV [1]; at a similar concentration to the present compound (20 μM)): completely prevented the expression of the antigen; toxicity to the HUT-78 cells (HUT-78 cells): significant toxicity to the HUT-78 cells

Q: Which “toxicity in the host cell” value (host cell) does the source give for `Cc1cn([C@H]2C[C@H](N=[N+]=[N-])[C@@H](CO)O2)c(=O)[nH]c1=O` [3'-deoxy-3'-azidothymidine] here?
A: considerable toxicity in the host cell

Q: Which results are given for `Cc1c(Sc2ccccc2)n(COCCO)c(=O)[nH]c1=O` [compound 1, 1-[(2-hydroxyethoxy)methyl]-6-phenylthiothymine]?
A: CC50 at 120 h [2]: > 250 µM; prevention of the expression of the HIV antigens (HIV [1]; 20 μM, 12 days of incubation): completely prevented the expression of the antigens; pIC50 (HIV [1]; Human immunodeficiency virus 1, HuT78, 288 h, 12 days of incubation, indirect immunofluorescence, read-out: 50% inhibitory concentration (expression of HIV antigens)): 5.28; toxicity to the HUT-78 cells (HUT-78 cells): no toxicity to the HUT-78 cells was observed; pIC50 (HIV [3]): 5.15

Q: With `Cc1cccc(Sc2c(C)c(=O)[nH]c(=O)n2COCCO)c1` [compound 7] as the compound, how does the CC50 at 120 h [2] read?
A: > 250 µM

Q: What about the pIC50 (HIV [3]) of the same compound?
A: 5.29

Q: For `Cc1c(Sc2cccc(Cl)c2)n(COCCO)c(=O)[nH]c1=O` [compound 10], which CC50 at 120 h [2] is on record?
A: > 250 µM

Q: And the pIC50 (HIV [3])?
A: 4.89

Q: With `COc1ccccc1Sc1c(C)c(=O)[nH]c(=O)n1COCCO` [compound 12] as the compound, how does the CC50 at 120 h [2] read?
A: > 250 µM

Q: And the pIC50 (HIV [3])?
A: 4.72

Q: With `COc1cccc(Sc2c(C)c(=O)[nH]c(=O)n2COCCO)c1` [compound 13] as the compound, how does the CC50 at 120 h [2] read?
A: > 250 µM

Q: What about the pIC50 (HIV [3]) of the same compound?
A: 4.66

Q: Which CC50 at 120 h [2] does the source give for `Cc1c(Sc2cccc([N+](=O)[O-])c2)n(COCCO)c(=O)[nH]c1=O` [compound 17] here?
A: > 250 µM

Q: And the pIC50 (HIV [3])?
A: 4.47

Q: With `Cc1c(SC2CCCCC2)n(COCCO)c(=O)[nH]c1=O` [compound 25] as the compound, how does the CC50 at 120 h [2] read?
A: > 250 µM

Q: And the pIC50 (HIV [3])?
A: 4.74

Q: With `Cc1c(Sc2ccccc2)n(COCCO)c(=S)[nH]c1=O` [compound 59, 1-[(2-hydroxyethoxy)methyl]-2-thio-6-phenylthiothymine] as the compound, how does the CC50 at 120 h [2] read?
A: 125 µM

Q: And the pIC50 (HIV [3])?
A: 6.01
